Measurements published in ChEMBL document CHEMBL3046673, “Synthesis and herbicidal activities of novel 4-(4-(5-methyl-3-arylisoxazol-4-yl)thiazol-2-yl)piperidyl carboxamides and thiocarboxamides” (Molecules, 2009).

Tests used:
Assay type in all cases: functional
Settings in all cases: 120 h, read-out: GI
Echinochloa crus-galli [1] = assay: Herbicidal activity against Echinochloa crus-galli (barnyard grass) assessed as inhibition of stalk growth at 10 mg/L using pre-emergence exposure protocol after 5 days
Echinochloa crus-galli [2] = assay: Herbicidal activity against Echinochloa crus-galli (barnyard grass) assessed as inhibition of root growth at 10 mg/L using pre-emergence exposure protocol after 5 days
Echinochloa crus-galli [3] = assay: Herbicidal activity against Echinochloa crus-galli (barnyard grass) assessed as inhibition of stalk growth at 100 mg/L using pre-emergence exposure protocol after 5 days
Echinochloa crus-galli [4] = assay: Herbicidal activity against Echinochloa crus-galli (barnyard grass) assessed as inhibition of root growth at 100 mg/L using pre-emergence exposure protocol after 5 days
Brassica napus [5] = assay: Herbicidal activity against Brassica napus (oilseed rape) assessed as inhibition of stalk growth at 10 mg/L using pre-emergence exposure protocol after 5 days
Brassica napus [6] = assay: Herbicidal activity against Brassica napus (oilseed rape) assessed as inhibition of root growth at 10 mg/L using pre-emergence exposure protocol after 5 days
Brassica napus [7] = assay: Herbicidal activity against Brassica napus (oilseed rape) assessed as inhibition of stalk growth at 100 mg/L using pre-emergence exposure protocol after 5 days
Brassica napus [8] = assay: Herbicidal activity against Brassica napus (oilseed rape) assessed as inhibition of root growth at 100 mg/L using pre-emergence exposure protocol after 5 days

SMILES	inhibition of growth at 10 µg/mL (Echinochloa crus-galli [1])	inhibition of growth at 10 µg/mL (Echinochloa crus-galli [2])	inhibition of growth at 100 µg/mL (Echinochloa crus-galli [3])	inhibition of growth at 100 µg/mL (Echinochloa crus-galli [4])	inhibition of growth at 10 µg/mL (Brassica napus [5])	inhibition of growth at 10 µg/mL (Brassica napus [6])	inhibition of growth at 100 µg/mL (Brassica napus [7])	inhibition of growth at 100 µg/mL (Brassica napus [8])
Cc1onc(-c2ccc(F)cc2)c1-c1csc(C2CCN(C(=O)NC(C)C)CC2)n1	47.7%	54.8%	63.6%	83.9%	46.7%	68.8%	66.7%	87.2%
CCCCNC(=O)N1CCC(c2nc(-c3c(-c4ccccc4F)noc3C)cs2)CC1	61.4%	58.1%	63.6%	90.3%	43.3%	61.5%	70%	86.2%
Cc1onc(-c2ccccc2F)c1-c1csc(C2CCN(C(=S)Nc3ccccc3)CC2)n1	45.5%	48.4%	59.1%	83.9%	43.3%	64.2%	60%	92.7%
Cc1onc(-c2ccc(Cl)cc2Cl)c1-c1csc(C2CCN(C(=O)Nc3ccc(F)cc3)CC2)n1	45.5%	32.3%	63.6%	83.8%	20.2%	34.9%	70%	90.3%
Cc1onc(-c2ccccc2F)c1-c1csc(C2CCN(C(=O)Nc3ccccc3)CC2)n1	17.1%	56.5%	39%	84.8%	31.8%	56.2%	72.7%	91.2%
Cc1onc(-c2ccc(F)cc2)c1-c1csc(C2CCN(C(=O)Nc3ccccc3)CC2)n1	39.1%	65.9%	56.5%	95.5%	25%	46.9%	53.6%	83.3%
Cc1onc(-c2ccccc2F)c1-c1csc(C2CCN(C(=O)Nc3ccc(F)cc3)CC2)n1	56.8%	64.5%	63.6%	80.6%	16.7%	52.3%	66.7%	96.6%
COc1ccc(-c2noc(C)c2-c2csc(C3CCN(C(=O)Nc4ccccc4)CC3)n2)cc1	-22%	45.7%	24.6%	76.1%	-22.7%	20.2%	4.5%	43.8%
Cc1onc(-c2ccc(F)cc2)c1-c1csc(C2CCN(C(=S)Nc3ccccc3)CC2)n1	43.2%	48.4%	63.6%	87.1%	6.7%	54.1%	53.3%	90.1%
COc1ccc(-c2noc(C)c2-c2csc(C3CCN(C(=O)Nc4ccc(F)cc4)CC3)n2)cc1	34.8%	59.1%	37%	86.4%	14.3%	46.9%	53.6%	81.3%
CCCCNC(=O)N1CCC(c2nc(-c3c(-c4ccc(F)cc4)noc3C)cs2)CC1	56.8%	71%	63.6%	87.1%	40%	67.8%	70%	88.1%
Cc1onc(-c2ccccc2)c1-c1csc(C2CCN(C(=O)Nc3ccccc3)CC2)n1	52.3%	52%	63.6%	78.3%	30%	51.4%	70%	80.4%
Cc1onc(-c2ccccc2)c1-c1csc(C2CCN(C(=O)Nc3ccc(F)cc3)CC2)n1	0%	54.8%	17.7%	87.1%	0%	66.3%	31.8%	85.4%
Cc1onc(-c2ccccc2F)c1-c1csc(C2CCN(C(=O)NC(C)C)CC2)n1	22%	56.5%	14.6%	73.9%	22.7%	68.5%	54.5%	83.1%
Cc1onc(-c2ccc(F)cc2)c1-c1csc(C2CCN(C(=O)Nc3ccc(F)cc3)CC2)n1	50%	35.5%	52.3%	74.2%	6.7%	35.8%	56.7%	76.1%
